Experimental data as given in EP1961762A1, “Inhibitors of protein phosphatase 1/GADD34, preparation and uses thereof” (Institut Gustave Roussy, priority 2007, dated 2008).
Entries after “also recorded” stand apart in the source; their conditions may differ.

What was measured:
[1] = tested on: CT26 tumours; test: Intratumoural treatment of established CT26 tumours, nu/nu mice
Description: (§2) All animals were maintained in specific pathogen-free conditions and all experiments followed the FELASA guidelines. […] Tumours were evaluated weekly, using a caliper. In a series of experiments, BALB/c (wild type or nu/nu) carrying palpable CT26 tumours (implanted 14 days before for wild type or 7 days before for nu/nu mice by injection of 10^6 tumour cells) received a single intratumoural injection of 100 µM PBS containing the same concentration of anti-cancer agents and PP1/GADD34 inhibitors as those used in vitro, as well as rCRT (15 µg).

[2] = tested on: CRT; test: Fluorescence detection of cell surface CRT on CT26 cells; assay type: cell-based, murine
Description: CT26 cells were cultured at 37°C under 5% CO2 in RPMI 1640 medium supplemented with 10% FCS, penicillin, streptomycin, 1 mM pyruvate and 10 mM HEPES in the presence of doxorubicin (DX; 24 h, 25 µM), mitoxantrone (Mitox; 24h, 1 µM, Sigma), idarubicin (24h, 1 µM, Aventis, France), mitomycin C (30 µM, 48 h; Sanofi-Synthelabo, France), and/or zVAD-fmk (50 µM, 24 h; Bachem), tunicamycin (24h, 65 µM), thapsigargin (24h, 30µM), brefeldin A (24h, 50 µM, Sigma), etoposide (48h, 25µM, Tava classics), MG132 (48h, 10 µM), ALLN (48h, […]), betulinic acid (24h, 10 µM), Hoechst 33343 (24h, 0,2µM), camptothecine (24h, 15 µM), lactacystin (48h, 60 µM), BAY 11-8072 (24h, 30µM), staurosporine (24h, 1.5 µM), bafilomycin A1 (48h, 300 nM), arsenic trioxide (24h, 30µM), C2-ceramide (C2-C; 24h, 60 µM,), calyculin A (48h, 30nM), or tautomycin (48h, nM, Sigma) and/or salubrinal (48h, µM, Calbiochem).
(§1) CT26 cells (on a glass slide or in 12-well plates) were first washed with FACS buffer (1× PBS, 5% fetus bovine serum, and 0.1% sodium azide) and then incubated with rabbit anti-mouse CRT antibody (1:100, Stressgen) in FACS buffer at 4 °C for 30 min. Cells reacted with anti-rabbit IgG (H+L) Alexa fluor 488-conjugates (1:500) in FACS buffer at 4 °C for 30 min. After washing three times with FACS buffer, surface CRT was detected by cytofluorometric analysis on a FACS Vantage. In some experiments, cells were fixed with 4% paraformaldehyde, counterstained with Hoechst (2µM; Sigma), followed by fluorescence microscopic assessment with a Leica IRE2 microscope equipped with a DC300F camera.

[3] = tested on: CT26 tumour cells; test: Anti-tumour vaccination with dying treated CT26 tumour cells, challenge with live tumour cells; assay type: in vivo, BALB/c mice; settings: for immunogenic apoptosis / immunogenic cell death (protection against tumour growth): dying CT26 cells treated with the agent injected into one flank, live tumour cells into the opposite flank 8 days later
[4] = tested on: CT26 tumours; test: Intratumoural treatment of established CT26 tumours, immunocompetent mice
Description: as §2

[5] = tested on: ERp57; test: Flow cytometric detection of surface ERp57; assay type: cell-based
[6] = tested on: CRT, KDEL receptor and ERp57; test: Double immunofluorescence staining of CRT, KDEL receptor and ERp57; assay type: cell-based; settings: HeLa cells, 1 µM, 2h
[7] = tested on: CRT; test: Cell surface CRT on enucleated CT26 cells (cytoplasts); assay type: cell-based, murine
Description: as §1
Trypsinized CT26 cells were enucleated as described in the publication of Andreau, K. et al. Contagious apoptosis facilitated by the HIV-1 envelope. Fusion-induced cell-to-cell transmission of a lethal signal. J. Cell Sci. 117, 5643-53 (2004). Briefly, cells were treated in 2 ml of complete RPMI medium containing cytochalasin B (10µg/ml; Sigma) and DNase I (80U/ml; Sigma). […] Then the cell surface CRT was detected (see materials and methods) and the viability was determined by with propidium iodine staining (2µg/ml, Sigma) for 5 min followed by cytofluorometric analysis. […] Phagocytosis was assessed by FACS analysis of double positive cells.

[8] = tested on: CT26 cells; test: Phagocytosis of tumour cells by dendritic cells; assay type: cell-based, BALB/c mice; settings: within a few hours after treatment
Description: BM cells were flushed from the tibias and femurs of BALB/c mice with culture medium composed of RPMI 1640 medium (Invitrogen Life Technologies) supplemented with 10% heat-inactivated FBS (Invitrogen), sodium pyruvate, 50 µM 2-ME (Sigma), 10 mM HEPES (pH 7.4), and penicillin/streptomycin (Invitrogen). After one centrifugation, BM cells were resuspended in Tris-ammonium chloride for 2 min to lyse RBC. After one more centrifugation, BM cells (1 x 10^6 cells/ml) were cultured in medium supplemented with 100 ng/ml recombinant mouse FLT3 ligand (R&D systems) in 6-well plates (Costar Corning). After 7 days, the non-adherent and loosely adherent cells were harvested with Versene, washed and transferred in 12-well plates (1.5 x 10^6 cells/plate) for cocultures with tumour cells.
In 12-well plates, 25 x 10^6 adherent CT26 cells were labelled with Celltracker Green (Calbiochem) and then incubated with drugs. In some experiments viable CT26 were coated with 2µg/10^6 cells of chicken anti-CRT antibody (ABR affinity bioreagents) or an isotype control for 30 min prior to washing and feeding to dendritic cells Cs. Alternatively CT26 cells were coated with 2µg/10^6 cells of rCRT on ice for 30 min and washed twice prior to addition to dendritic cells. […] Phagocytosis was assessed by FACS analysis of double positive cells. […]

[9] = tested on: MCA205, B16F10, J558; test: CRT exposure on murine tumour cell lines; assay type: cell-based
[10] = tested on: HeLa, A549, HCT116; test: CRT exposure on human tumour cell lines; assay type: cell-based
[11] = tested on: ERP57; test: Biotinylated surface proteins, 2D electrophoresis and mass spectroscopy; settings: short-term (4 h) treatment
[12] = tested on: CRT; test: as above; settings: short-term (4 h) treatment
[13] = tested on: CRT and/or ERp57; test: Immunofluorescence staining of unfixed human tumour cell lines; assay type: cell-based; settings: variety of human tumour cell lines

SMILES | therapeutic effect of single agent ([1]; mouse, in vivo) | CRT exposure [2] | immunogenic cell death ([3]; mouse, in vivo) | immunogenic potential of cells succumbing to etoposide ([3]; mouse, in vivo) | therapeutic effect of single agent ([4]; mouse, in vivo) | tumour response ([4]; mouse, in vivo) | surface exposure of ERp57 [5] | surface appearance of CRT, KDEL receptor and ERp57 [6] | therapeutic effect of single agent ([1]; single intratumoural injection) | time to CRT exposure in enucleated cells (cytoplasts) [7] | CRT exposure triggered by PP1 or GADD34 depletion ([2]; siRNA knock-down, then mitoxantrone 2 h) | immunogenic apoptosis / immunogenic cell death (protection against tumour growth) [3] | therapeutic effect of single agent ([4]; single intratumoural injection, 14-day-old tumours) | phagocytosis of treated tumour cells by DC [8] | CRT exposure [9] | CRT exposure [10] | surface exposure of ERP57 [11] | induction of surface CRT (factor) ([12]; doxorubicin alone) | induction of surface CRT (factor) ([12]; doxorubicin combined with Z-VAD-fmk) | exposure of CRT and/or ERp57 on the cell surface [13]
CO[C@H]([C@H](O)CC(=O)[C@@H](C)[C@@H](O)CC[C@@H](C)[C@@H]1O[C@]2(CC[C@@H](C)[C@H](CC[C@H](C)C(C)=O)O2)CC[C@@H]1C)[C@H](OC(=O)C[C@@H](O)C1=C(C)C(=O)OC1=O)C(C)C [tautomycin] | no major therapeutic effect | efficiently induced; also recorded: greatly enhanced | not sufficient to induce immunogenic cell death | greatly enhanced | no major therapeutic effect | stable disease or complete tumour regression | stimulates the surface exposure or ERp57 |  |  |  |  |  |  |  |  |  |  |  |  | 
O=C1c2c(O)ccc(O)c2C(=O)c2c(NCCNCCO)ccc(NCCNCCO)c21 [mitoxantrone] |  |  |  |  |  |  |  | appear together on the surface | no cure | ≤ 1 h | not further enhanced | elicited immunogenic cell death | permanent regression in some but not all cases | acquired the property to be phagocytosed by DC quickly | induced CRT exposure | induced CRT exposure |  |  |  | 
COc1cccc2c1C(=O)c1c(O)c3c(c(O)c1C2=O)C[C@@](O)(C(=O)CO)C[C@@H]3O[C@H]1C[C@H](N)[C@H](O)[C@H](C)O1 [doxorubicin] |  |  |  |  |  |  |  |  |  |  |  | elicited immunogenic cell death |  | acquired the property to be phagocytosed by DC quickly |  |  | specifically induced | 6 | 1.8 | Very similar results
